Measurements reported in US8211465B2, “Immediate release and sustained release ibuprofen dosing regimen” (McNeil-PPC, Inc., priority 2007, dated 2012).

Test system: moderate to severe post-operative dental pain
Experiment: PK/PD dental pain study, 12 hour observation period
Procedure: A double-blind, randomized, parallel, placebo-controlled, single center, PK/PD dental pain study was conducted over a 12 hour observation period to evaluate the pharmacokinetic, pharmacodynamic, efficacy and safety profiles of certain ibuprofen dosing regimens. Specifically, a single dose of 600 mg ibuprofen extended release caplets was compared with equivalent total doses of ibuprofen immediate release 200 mg caplets administered in three different dosing regimens as well as placebo in the treatment of moderate to severe post-operative dental pain. […] One sub-group of patients had both pharmacokinetic and pharmacodynamic evaluation (PK group). The other sub-group of patients had only the analgesic efficacy evaluations (non-PK group). Patients from both subgroups were assigned at random to one of the five following treatments:
A stopwatch technique was used to measure the onset of meaningful pain relief.

CC(C)Cc1ccc(C(C)C(=O)O)cc1 (stereo not shown) [ibuprofen, 2-(4-isobutylphenyl)-propionic acid]
pain relief during the first four hours (400/200/0 regimen: immediate release 400 mg at 0 hour, 200 mg at 4 hours): superior pain relief over the other treatments | pain relief over the entire 12-hour study period (400/200/0 regimen: immediate release 400 mg at 0 hour, 200 mg at 4 hours, dental pain patients): excellent pain relief | pain relief scores during the 4 to 12 hour interval (400/200/0 regimen, no further ibuprofen after the first four hours): highest pain relief scores | pain relief during the first four hours (600/0/0 immediate release treatment: 600 mg single dose at 0 hour): superior pain relief over the other treatments
